According to patent US20200085895A1, “PUNICALAGIN COMPOSITIONS AND METHODS FOR THE TREATMENT OF DISORDERS ARISING FROM METHYLGLYOXAL-INDUCED DNA DAMAGE” (Verdure Sciences, priority 2018, published 2020):
“Also recorded” adds a separate entry of the source.

How the values were obtained:
HaCaT cells [1] = test: Wound healing model (in vitro scratch healing assay); type: cell-based, human; details: 50 μM pre-treatment 2 hours, 400 μM MGO 48 h; FIG. 9D, 9E
Experimental: (§1) HaCaT cells which were derived from human adult keratinocytes were bought from American Type Culture Collection (Manassas, Va., USA). The cells were maintained in DMEM supplemented with 5% FBS at 37° C. under an atmosphere of 5% CO2 and 95% air. The culture medium was replaced every other day.
Wound healing model was constructed with an in vitro scratch healing assay performed as described previously with certain modifications.^4 HaCaT cells in 6-well plates were cultured up to about 80-90% confluence. Then cells were pretreated with PE 50 μg/mL, PA 50 μM, EA 50 μM, and UA 50 μM, respectively for 2 hours. After the treatments, a narrow wound-like gap in the cell monolayer was created with a […] pipette tip in each well. The shedding cells were washed off with PBS and then the images were captured with EVOS Cell Imaging System (Invitrogen, Waltham, Mass., USA). The cells were further exposed to 400 μM MGO for 48 h and the cell images were captured with EVOS Cell Imaging System (Invitrogen, Waltham, Mass., USA). Gap area was analyzed in image J, a software quantifying visualization image data, and the wound healing rate was calculated as follows=[…]/Gap Area(0 h)×100%.

HaCaT cells [2] = test: Alkaline comet assay, MGO-induced DNA damage; type: cell-based, human; details: for protective effect on MGO induced DNA damage (comet assay, tail DNA): 50 μM pre-treatment 2 hours, MGO 400 μM 24 h, FIG. 8
Experimental: HaCaT cells were seeded at about 100 000 cells/ml to yield 80-90% confluence in standard 6-well plates. […] After incubation, the cells were washed with PBS twice and then treated with MGO (400 μM) for 24 h. After that, comet assay was performed as per the protocol provided by [sequence] (4250-050-K). Briefly, cells were collected and combined with molten LMAgarose at a ratio of 1:10, pipetted onto Comet slides, incubate in Lysis Solution at 4° C. overnight, immerse slides in Alkaline Unwinding Solution for 20 minutes, apply electrophoresis in Alkaline Electrophoresis Solution at 21 volts for 30 minutes, fixed in 75% ethanol for 15 minutes, dry in 37° C. for 15 minutes and then stain in diluted SYBR GOLD, images were taken with EVOS Cell Imaging System (Invitrogen, Waltham, Mass., USA) and analyzed via CASP.

HaCaT cells [3] = test: Transwell assay (cell migration ability); type: cell-based, human; details: 50 μM pre-treatment 2 hours, 400 μM MGO 24 h; FIG. 9B
Experimental: Cell migration ability was measured by transwell assay. HaCaT cells in 6-well plates were cultured up to about 80-90% confluence. Then cells were pretreated with PE 50 μg/mL, PA 50 μM, EA 50 μM, and UA 50 μM, respectively for 2 hours, then washed with PBS twice. After that, cells were exposed to 400 μM of MGO for 24 h. Then, cells were digested with trypsin and centrifuged at 300 g for 5 min. Then, 2.5×10^5 cell were suspended in 1 ml serum free DMED. 100 μl of serum free DMEM were added into the upper chamber and incubated for 5 minutes, then 600 μl DMEM containing 5% FBS were added to the 24 well plate (lower chamber). After that 300 μl of cell suspension were added into the upper chamber. After 12 h incubation, cells in upper chamber were washed with PBS and fixed with 75% ethanol for 15 minutes. Then cells in upper chamber were stained with Crystal violet for 10 minutes and washed for 5 times. Cells inside the upper chamber were removed by swab. Then, pictures were taken with EVOS Cell Imaging System (Invitrogen, Waltham, Mass., USA). After that stained cells were incubated in 75% ethanol for 15 minutes for decoloration. Then, optical density of the decoloration solution in 570 nm was calculated via Spectra Max M2 spectrometer (Molecular Devices, Sunnyvale, Calif., USA).

9mer ss-DNA = test: Glycation assay and LC-MS analysis of MGO-induced DNA damage; type: biochemical; details: FIG. 1
Description: DNA Oligonucleotide Synthesis. Nine-mer single stranded DNA oligonucleotide (9mer ss-DNA) with the sequence 5′-TTTTGTTTT-3′ containing a single guanine base was synthesized by using solid-phase phosphoramidite chemistry as previously described^2 on MerMade-4 DNA synthesizer. The oligonucleotide was purified by using Thermo Scientific DNAPac PA100 Oligonucleotide anion-exchange column (4×250 mm, 13 μm) with two mobile phases. Solvent A was water, and solvent B was 1.5M ammonium acetate in water. The oligonucleotide was characterized by HPLC electrospray ionization (ESI) triple quadrupole-TOF mass spectrometry (MS). The concentration of oligonucleotide was determined by measuring UV absorbance at 260 nm on a NanoDrop spectrophotometer.
Glycation Assay and LC-MS Analysis. […] LC-MS analysis was carried out on AB Sciex triple quadrupole-TOF 4600 mass spectrometer. […]
Statistical Analysis. […] The data between two groups was assessed under the two-tailed Student's t test. p-value<0.05 was considered as statistically significant. […]

HaCaT cells [4] = test: Protective effect on MGO induced cell damage model (CTG 2.0); type: cell-based, human; details: 12.5, 25, and 50 μM pre-treatment 2 hours, then 400 μM MGO 24 hours; FIG. 5
Experimental: as §1
Briefly, HaCaT cells were seeded at about 50000 cells/ml to yield 50-60% confluence in standard white-walled clear bottom 96-well plates and 6-well plates. After 12 h incubation cells were pre-treated with different concentrations of PE (0, 6.25, 12.5, 25, 50, 100, 200 μg/mL), PA (0, 3.13, 6.25, 12.5, 25, 50, 100, 200 μM), EA (0, 3.13, 6.25, 12.5, 25, 50, 100, 200 μM), and UA (0, 3.13, 6.25, 12.5, 25, 50, 100, 200 μM) for 2 hours. Then cells were washed with PBS twice and treated with 400 μM MGO for 24 hours. Cellular viability was detected using cells in 96-well plate via CTG 2.0, and cell images were taken with EVOS Cell Imaging System (Invitrogen, Waltham, Mass., USA) using cells in 6-well plates after crystal violet stain.

HaCaT cells [5] = test: Reactive oxygen species (ROS) assay, DCFDA; type: cell-based, human; details: MGO 400 μM 24 h, FIG. 6
Experimental: HaCaT cells were seeded at about 50 000 cells/ml to yield 50-60% confluence in standard white-walled clear bottom 96-well plates and 6-well plates in DMEM. After 12 h incubation cells were pre-treated with concentrations of PE (0, 6.25, 12.5, 25, 50, 100, 200 μg/mL), PA (0, 3.13, 6.25, 12.5, 25, 50, 100, 200 μM), EA (0, 3.13, 6.25, 12.5, 25, 50, 100, 200 μM), and UA (0, 3.13, 6.25, 12.5, 25, 50, 100, 200 μM) for 2 hours. Then, the medium was replaced with DMEM containing 20 μM DCFDA and MGO (400 μM) for 24 h. After incubation, all the wells were washed with PBS twice. Subsequently, the fluorescence signals from 96-well plates were read at excitation and emission wavelengths of 485 and 525 nm, respectively, using a Spectra Max M2 spectrometer (Molecular Devices, Sunnyvale, Calif., USA). Cells images were taken with EVOS Cell Imaging System (Invitrogen, Waltham, Mass., USA) using 6-well plates cells.

HaCaT cells [6] = test: Hoechst 33342 staining, MGO-induced DNA damage; type: cell-based, human; details: 50 μM pre-treatment 2 hours, 400 μM MGO 24 hours; FIG. 7
Experimental: HaCaT cells were seeded at about 50,000 cells/ml to yield 50-60% confluency in a standard 6-well plate. Cells were pre-treated with PE 50 μg/mL, PA 50 μM, EA 50 μM, and UA 50 μM, respectively for 2 hours. Then cells were washed with PBS once and treated with 400 μM of MGO for 24 hours. After that cells were washed with PBS twice and then incubated with 250 μl Hoechst 33342 (1:300 dilute with PBS) at room temperature for 15 minutes. Then cells were fixed with 75% ethanol for 15 minutes, followed by imaging with EVOS Cell Imaging System (Invitrogen, Waltham, Mass., USA).

HaCaT cells [7] = test: Cell viability of HaCaT cells exposed to test substances (CTG 2.0); type: cell-based, human; details: 0-200 μM, 24 hours, FIG. 3
Experimental: as §1
Cellular viability was assessed using the Cell Titer Glo2.0 (CTG 2.0) one-step assay. Briefly, HaCaT cells were seeded at about 50 000 cells/ml to yield 50-60% confluence in a standard white-walled clear bottom 96-well plate. HaCaT cells were exposed to different concentration of PE (0, 6.25, 12.5, 25, 50, 100, 200 μg/mL), PA (0, 3.13, 6.25, 12.5, 25, 50, 100, 200 μM), EA (0, 3.13, 6.25, 12.5, 25, 50, 100, 200 μM), and UA (0, 3.13, 6.25, 12.5, 25, 50, 100, 200 μM) for 24 hours. Following the pre-determined incubation period of 24 hours, CTG 2.0 was added in a 1:1 ratio with existing media and mixed for 5 minutes on an orbital shaker prior to luminescence measurement (Spectramax M2, Molecular Devices, Sunnyvale, Calif., USA).

HaCaT cells [8] = test: MGO induced cell damage model (CTG 2.0, crystal violet staining); type: cell-based, human; details: 24 hours
Experimental: as §1
Briefly, HaCaT cells were seeded at about 50000 cells/ml to yield 50-60% confluence in standard white-walled clear bottom 96-well plates and 6-well plates. After 12 h incubation cells were treated with different concentrations of MGO ([…], 200 μM, 300 μM, 400 μM, 500 μM and 600 μM) for 24 hours respectively and use non-treated group as control. Cellular viability was detected using cells in 96-well plates via CTG 2.0. […] At higher concentrations than 400 μM the damaged caused by MGO to the cells was extreme. Morphological analysis was conducted to evaluate cell damage with crystal violet staining method in 6-well plates as per the below mentioned procedure.
Briefly crystal violet staining were carried with protocol provided by sigma. The staining solution was prepared by dissolve 5 g of crystal violet powder into 100 ml 20% ethanol to make. HaCaT cells in 6-well plates were fixed with 75% ethanol 15 minutes in room temperature. Then cells were incubated with staining solution for 10 minutes. After that cells were washed with PBS for 5 times. Subsequently, pictures were taken under EVOS Cell Imaging System (Invitrogen, Waltham, Mass., USA).
Excessive accumulation of MGO is harmful for skin cells, so the effects of MGO on cell viability at various concentrations on HaCaT cells were evaluated first.

Compound: O=C1O[C@H]2[C@@H]3OC(=O)c4cc(O)c(O)c(O)c4-c4c(O)c(O)c5oc(=O)c6c(c(O)c(O)c7oc(=O)c4c5c76)-c4c(cc(O)c(O)c4O)C(=O)OC[C@H]3OC(O)[C@@H]2OC(=O)c2cc(O)c(O)c(O)c2-c2c1cc(O)c(O)c2O (mixture of isomers) [PA, punicalagin]
- wound healing process in the presence of MGO (HaCaT cells [1]): can promote the wound healing process
- protective effect on MGO induced DNA damage (comet assay, tail DNA) (HaCaT cells [2]): protective effect
- cell migration ability (transwell assay) (HaCaT cells [3]): promotive effects
- protective effect against methylglyoxal (MGO)-induced DNA damage (9mer ss-DNA; 200 μM 9mer ss-DNA, 200 μM MGO, pH 7.4, 37° C., 7 days): protective effect
- activity in reducing DNA damage compared with aminoguanidine (AG) positive control (9mer ss-DNA; equivalent concentration (50 μM)): considerably more active
- cell viability of HaCaT cells exposed to MGO, compared to non-treated group (HaCaT cells [4]): significantly increased cell viability
- production of MGO induced ROS in HaCaT cells, compared to non-treated group (HaCaT cells [5]; 12.5, 25, and 50 μM pre-treatment 2 hours): significantly reduced the production of MGO induced ROS
- DNA damage level caused by MGO (Hoechst staining) (HaCaT cells [6]): can reduce the DNA damage level

Compound: O=c1oc2c(O)c(O)cc3c(=O)oc4c(O)c(O)cc1c4c23 [EA, ellagic acid]
- cytotoxicity to HaCaT cells (HaCaT cells [7]): not cytotoxic
- protective effect on MGO induced DNA damage (comet assay, tail DNA) (HaCaT cells [2]): no protective effects
- cell migration ability (transwell assay) (HaCaT cells [3]): promotive effects
- production of MGO induced ROS in HaCaT cells, compared to non-treated group (HaCaT cells [5]; 50 μM pre-treatment 2 hours): significantly reduced the production of MGO induced ROS
- DNA damage level caused by MGO (Hoechst staining) (HaCaT cells [6]): can reduce the DNA damage level

Compound: CC(=O)C=O [MGO, methylglyoxal]
- effect of MGO on HaCaT cell viability (HaCaT cells [8]; MGO 100-300 μM): did not affect the cell viability; also recorded: non-toxic
- effect of MGO on HaCaT cell viability (HaCaT cells [8]; MGO at 400 μM or higher): significant cytotoxicity
- effect of MGO on HaCaT cell viability (HaCaT cells [8]; MGO higher than 400 μM): extreme; also recorded: extremely cytotoxic
- percentage of fracture DNA compared to control group (comet assay) (HaCaT cells [2]; MGO 400 μM alone, 24 h): could increase the percentage of fracture DNA

Compound: O=c1oc2cc(O)ccc2c2ccc(O)cc12 [UA, urolithin A]
- cytotoxicity to HaCaT cells (HaCaT cells [7]): not cytotoxic
- protective effect on MGO induced DNA damage (comet assay, tail DNA) (HaCaT cells [2]): no protective effects
- cell migration ability (transwell assay) (HaCaT cells [3]): promotive effects
- production of MGO induced ROS in HaCaT cells, compared to non-treated group (HaCaT cells [5]; 25 and 50 μM pre-treatment 2 hours): significantly reduced the production of MGO induced ROS
- DNA damage level caused by MGO (Hoechst staining) (HaCaT cells [6]): can reduce the DNA damage level
